# Test results: patent US5879896A, “Method of screening for inhibitors of human thyrotropin releasing hormone (TRH) receptor” (Takeda Chemical Industries, Ltd., priority 1993, dated 1999)
# Where two headings read alike, the source gives them in different places.
# Key:
# human TRH receptor [1] = biological target: T1, human TRH receptor (Homo sapiens, UniProt P34981); test: [3H]TRH binding to Sf9 cells infected with recombinant baculovirus carrying human TRH receptor genes (Example 3); parameters: translation frame (open reading frame) of the human TRH receptor was constructed on pUC118; expressed in transfected cells; conditions: 1000-fold unlabeled TRH (10 μM) (FIG. 8)
# T1 sequence (P34981 1-398): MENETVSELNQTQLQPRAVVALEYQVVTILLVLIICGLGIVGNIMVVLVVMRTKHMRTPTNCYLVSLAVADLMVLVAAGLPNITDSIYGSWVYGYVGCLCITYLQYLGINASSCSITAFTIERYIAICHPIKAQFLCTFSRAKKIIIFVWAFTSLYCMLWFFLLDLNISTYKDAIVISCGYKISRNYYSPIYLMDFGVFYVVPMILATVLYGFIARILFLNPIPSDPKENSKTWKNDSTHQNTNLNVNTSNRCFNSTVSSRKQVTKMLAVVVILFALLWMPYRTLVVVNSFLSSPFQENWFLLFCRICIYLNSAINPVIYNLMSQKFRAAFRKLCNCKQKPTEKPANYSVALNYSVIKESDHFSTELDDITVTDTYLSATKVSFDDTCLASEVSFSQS
# human TRH receptor [2] = biological target: T1, human TRH receptor; test: c-fos promoter / secretive alkaline phosphatase assay in human TRH receptor expression CHO cells (Example 9); assay type: cell-based; parameters: translation frame (open reading frame) of the human TRH receptor was constructed on pUC118; expressed in transfected cells; host or cells: CHO dhfr- cells (plasmid pAKKO1.11 with the human TRH receptor open reading frame); conditions: c-fos promoter activation, overnight (FIG. 14)
# Experimental: An insertion of a secretive alkaline phosphatase gene linked to a c-fos promoter into a TRH receptor expression cell was conducted as follows:
# 5×10^5 TRH receptor expression CHO cells were inoculated onto a 10 cm plate and they were cultivated for 24 hours in Ham's F12 medium (Lifetech Oriental) equipped with 10% fetal bovine serum. 3 μg of a vector (pSVP4-Ap-neo, FIG. 13) which was introduced by a secretive alkaline phosphatase gene downstream from the c-fos promoter was introduced into the CHO cells using a gene introducing kit (Cell Phect, Pharmacia) by calcium phosphate method. The cells introduced by the vector were cloned in the above-described medium equipped with 500 μg/ml of G418. 39 clones were isolated and clones which have high TRH responsiveness were further selected.
# Cell stimulating activity through a TRH receptor using activation of c-fos promoter as an indicator was assayed as follows:
# Each 5×10^4 of the above-described transformants were inoculated onto 96 hole plates for tissue cultivation (Corning) and they were cultivated for a night. […] The plate was assayed by a fluorescence plate reader (Fluoroskan II, Titertek) at 365 nm of excitation and 450 nm of luminescence.
# human TRH receptor [3] = biological target: T1, human TRH receptor; test: Release of [3H]-labeled arachidonic acid from CHO cells into which human TRH receptor DNAs were introduced (Example 7); assay type: cell-based; parameters: translation frame (open reading frame) of the human TRH receptor was constructed on pUC118; expressed in transfected cells; host or cells: CHO dhfr- cells (plasmid pAKKO1.11 with the human TRH receptor open reading frame); conditions: TRH concentration dependence, compared with control (HBSS alone) (FIG. 10)
# Experimental: (§1) CHO cells into which the human TRH receptor DNAs obtained in Example 4 were subcultured at a density of 1.0×10^6 cells/well to a 12-well tissue culture plate (Sumitomo Bakelite) and cultivated for 24 hours. The medium was removed and replaced by a fresh medium. Then, [^3 H] […] arachidonic acid (du Pont/NEN, specific activity: 60-100 Ci/mmol) was added to give a concentration of 0.5 μCi/well. After addition of arachidonic acid, the cells were further cultivated for 24 hours, and washed three times with Hanks' balanced salt solution (HBSS) supplemented with 0.05% BSA. Thereafter, 495 μl/well of HBSS supplemented with 0.05% BSA was added thereto. Then, 5 μl of a test solution was added thereto, and incubation was conducted for 30 minutes at room temperature to release arachidonic acid in the medium. HBSS (400 μl) of the supernatant was recovered, and mixed with liquid scintillator A (Wako Pure Chemical Industries). The amount of released [^3 H]-labeled arachidonic acid was measured by use of a liquid scintillation counter (Beckmann).
# Further, in the receptor binding experiment of Example 6, the releasing activity of arachidonic acid was measured using 4 kinds of compounds strongly that can antagonize the binding of [^3 H]
# pituitary glands = conditions: literature; cited from earlier work
# CHO dhfr- cells = test: Release of [3H]-labeled arachidonic acid from control CHO dhfr- cells (Example 7); assay type: cell-based, Chinese hamster; conditions: TRH added (FIG. 10)
# Experimental: as §1
# human TRH receptor [4] = biological target: T1, human TRH receptor; test: Antagonism of [3H]TRH binding in CHO dhfr- cells transformed with human TRH receptor DNA (Examples 5 and 6); parameters: translation frame (open reading frame) of the human TRH receptor was constructed on pUC118; expressed in transfected cells; host or cells: CHO dhfr- cells (plasmid pAKKO1.11 with the human TRH receptor open reading frame); conditions: 1 h
# [5] = read-out: Antagonistic Rate (%) at Each Concentration (-log M)
# [6] = read-out: Antagonistic Rate (%) at Each Concentration (-log M) (*1)
smiles,measurement,setting,value
"NC(=O)[C@@H]1CCCN1C(=O)[C@H](Cc1cnc[nH]1)NC(=O)[C@@H]1CCC(=O)N1 [TRH, pGlu His Pro NH2]","Antagonism of [3H]TRH binding by unlabeled TRH, in words",human TRH receptor [1],antagonized the binding
same,"Alkaline phosphatase secretion into supernatant, in words",human TRH receptor [2],alkaline phosphatase secrets into the supernatant depending on the concentration of TRH added
same,"Amount of arachidonic acid released, in words",human TRH receptor [3],increase the amount of arachidonic acid released depending upon the concentration
same,"Secretion of pituitary hormones, in words",pituitary glands,promoting secretion of thyroid stimulating hormone and prolactin of the pituitary glands
same,"Amount of arachidonic acid released, in words",CHO dhfr- cells,no change was observed
same,inhibition at 1 pM,human TRH receptor [4]; [5],0%
same,inhibition at 10 pM,human TRH receptor [4]; [5],0.7%
same,inhibition at 0.0001 µM,human TRH receptor [4]; [5],0.3%
same,inhibition at 0.001 µM,human TRH receptor [4]; [5],7.2%
same,inhibition at 0.01 µM,human TRH receptor [4]; [5],52%
same,inhibition at 0.1 µM,human TRH receptor [4]; [5],90.7%
same,inhibition at 1 µM,human TRH receptor [4]; [5],98.7%
same,inhibition at 10 µM,human TRH receptor [4]; [5],99.7%
same,inhibition at 0.0001 µM,human TRH receptor [4]; [6],-0.7%
same,inhibition at 0.001 µM,human TRH receptor [4]; [6],4.2%
same,inhibition at 0.01 µM,human TRH receptor [4]; [6],39.8%
same,inhibition at 0.1 µM,human TRH receptor [4]; [6],83.9%
same,inhibition at 1 µM,human TRH receptor [4]; [6],97.8%
same,inhibition at 10 µM,human TRH receptor [4]; [6],99.7%
